We go through 1 molecule from patent publication US5747461A, “Synergistic administration of cyclosporine and fructose diphosphate” (priority 1994, dated 1998).

Test [1] deals with Concanavalin A-stimulated T-lymphocytes. The test can be described thus: Thymidine incorporation by Concanavalin A-stimulated T-lymphocytes. The format is cell-based, rat. To be noted: ConA-stimulated. The method, then:
The in vitro tests, and their results, are described in detail in Example 1. Briefly, T lymphocytes were obtained from rat spleens. The cells were then stimulated by Concanavalin A (ConA), a mitogen that specifically stimulates T lymphocyte replication, both in control samples and in samples that were also contacted with either FDP or cyclosporine at various concentrations. Cell replication was measured by assaying the uptake of thymidine which had been radiolabelled using tritium, a heavy isotope of hydrogen. Cell viability was measured using a dye, trypan blue; intact and viable cells can exclude trypan blue from their interiors, while damaged or dead cells cannot.
Sprague-Dawley rats (150-200 gm body weight) were euthanized by overdose of ketamine (injected intramuscularly, IM). Their spleens were removed under sterile conditions and placed in a plastic petri dish with Buffered Hanks Solution (BHS). The splenic parenchyma was torn apart with sterile needles and forceps. The solution with the splenic fragments was homogenized with a Teflon pestle in a glass tube. This allowed the cells to be expressed into the solution which was then filtered and placed over Ficoll-Hypaque and centrifuged at 1500 RPM for 20 minutes in order to separate mononuclear cells. The middle layer of cells (containing lymphocytes) was removed and centrifuged at 1000 RPM for 10 min. After removing the supernates, the remaining red blood cells were lysed with 0.83% NH4 Cl solution, and the cells were again centrifuged at 1000 RPM for 2-3 min. The supernate was poured off and the cells were washed twice with BHS and then resuspended in tissue culture media (RPMI-1640 with 10% fetal calf serum). The cells then were adjusted to final concentration of 5×10^6 cells/ml with RPMI-1640 and 10% fetal calf serum.
A tissue culture multi-well plate was used for incubation. All well filling was done under sterile conditions. […] The well volume capacity was 0.35 ml.
Six different dilutions (freshly prepared in sterile water solution from 10% FDP stock solutions) were used--1:10, 1:100, 1:250, 1:500, 1:1000 and 1:10000. […] A few wells were used to measure the stimulation index, and received ConA or RPMI without FDP or Cyclosporine. All combinations were run in triplicate. The wells were labeled and incubated with CO2 at 35° C. for 48 hours.
Each well then received 0.05 ml of tritiated (^3 H) thymidine (1 μCi/0.05 ml). Radiolabelled thymidine is taken up by proliferating lymphocytes, allowing them to be counted using a liquid scintillation counter. After 16 to 20 hours of incubation the samples were harvested onto glass filter paper strips using a multiple automated sample harvester. The paper was allowed to dry 4-5 hours. Paper from each well was placed in scintillation counting vials with 5 ml fluorane (scintillene). […] Significance was assessed by unpaired t-test.
Background: Dividing cells build labelled thymidine or BrdU into new DNA.

For test [2], the system named is ischemically stored livers. The test can be described thus: Oxygen consumption after hypothermic ischemic storage, liver. Details: species or system rat. Conditions: livers n=12; FDP 1 mg/ml in storage solution; storage 17.62±0.22 hours at 4° C.; measured at 36.4° C. As for the experimental part:
Sprague Dawley rats (150-180 gm/body weight) were anesthetized with Ketamine 35 mg/kg. The liver, kidney and heart were excised and placed in 50 ml of a standard cardioplegia solution sold under the trademark ISOLYTE (which contained Na^+ -41 mEq/L, K^+ -16 mEq/L, Ca^++ -5 mEq/L, Mg^++ 3 mEq/L, Cl^- -40 mEq/L, acetate 24 mEq/L with 5% Dextrose), precooled to 4° C. To half of the storage containers, 1 mg/ml of 10% FDP was added; to the rest of the containers, a similar amount of glucose was added. The containers were placed on ice in a refrigerator. After storage for 16 to 20 hours, the organs were weighed and placed in a metabolic chamber for determination of oxygen consumption,using a Clark polarographic electrode. The total volume of the chamber was 10 ml and the composition of the medium was 8 ml phosphate buffered saline (PBS Dulbecco, Mg^++ and Ca^++ free) and 2 cc of Dextrose at a temperature of 36°±0.2° C. The organ was placed in the chamber and 100% oxygen was bubbled for 45 sec. The partial pressure of the dissolved oxygen was usually 480-560 mm Hg. Then the chamber was sealed hermetically, and O2 consumption by the organ was recorded on a strip chart recorder at a speed of 1 cm/min. Initial and final PO2 levels of medium in the chamber were measured on a Radiometer Blood Gas Analyzer Model ABL-4.

On to `O=C(COP(=O)(O)O)[C@@H](O)[C@H](O)[C@H](O)COP(=O)(O)O` [FDP, fructose-1,6-diphosphate], for which the Thymidine incorporation was 136 counts per 2 minute period in test [1] (FDP 1:10 dilution of 10% stock); 1175 counts per 2 minute period in test [1] (FDP 1:100 dilution of 10% stock); 24818 counts per 2 minute period in test [1] (FDP 1:250 dilution of 10% stock); 52481 counts per 2 minute period in test [1] (FDP 1:500 dilution of 10% stock); 62518 counts per 2 minute period in test [1] (FDP 1:1000 dilution of 10% stock); 89032 counts per 2 minute period in test [1] (FDP 1:10000 dilution of 10% stock, mean of 13 experiments). The “oxygen consumption after ischemic storage” value in test [2] amounted to 76.7±4.4 O2 mmHg/min/gm.
